Like-named read-outs stand apart in the source and are kept apart here.
Tested on: glioma
Format: in vivo, human
Conditions: for T/NTmax (maximum target to non-target ratio): brain PET/CT; for SUVmax in glioma: brain PET/CT before surgery

## ^18F-FDG
Eight glioma patients
  T/NTmax in glioma, mean ± SD: 0.86 ± 0.41
Eight glioma patients, range
  SUVmax in glioma tissues, range: 3.50-12.27
  T/NTmax in glioma, range: 0.35-1.59
Patient No. 1, WHO grade II
  T/NTmax (maximum target to non-target ratio): 0.72
  SUVmax in glioma: 7.40
Patient No. 2, WHO grade II
  T/NTmax (maximum target to non-target ratio): 0.35
  SUVmax in glioma: 3.50
Patient No. 3, WHO grade III
  T/NTmax (maximum target to non-target ratio): 0.61
  SUVmax in glioma: 7.27
Patient No. 4, WHO grade IV
  T/NTmax (maximum target to non-target ratio): 0.80
  SUVmax in glioma: 12.27
Patient No. 5, WHO grade IV
  T/NTmax (maximum target to non-target ratio): 0.72
  SUVmax in glioma: 5.76
Patient No. 6, WHO grade IV
  T/NTmax (maximum target to non-target ratio): 0.78
  SUVmax in glioma: 9.87
Patient No. 7, WHO grade IV
  SUVmax in glioma: 8.47
Patient No. 8, WHO grade IV
  T/NTmax (maximum target to non-target ratio): 1.59
  SUVmax in glioma: 4.20
